“Also recorded” adds a separate entry of the source.

Consider one compound from paper PMC9783881, “Synthesis and Preclinical Evaluation of Small-Molecule Prostate-Specific Membrane Antigen-Targeted Abiraterone Conjugate” (Molecules, 2022).

Data set [1] deals with human adult dermal fibroblasts (HDFa). The data set can be described thus: Cytotoxicity on human adult dermal fibroblasts, MTT-test. The data set is classed as cell-based. As for the experimental part: Human adult dermal fibroblasts (HDFa). (ATCC) were propagated in DMEM medium (Paneco) supplemented with 10% fetal calf serum (Gibco) and 1% pemicillin/streptomycin in a 5% CO2 atmosphere at 37 °C. Cytotoxicity of PSMA-Abi and AbiAc in fibroblasts were studied using MTT-test. The cells in the exponential growth phase were trypsinized, counted, and seeded at a density of 5000 cells/well in 96-well plate. Cells were incubated with both tested agents at the designated concentrations (0.4–100 μM) for 72 h; then, each well was treated with 20 μL MTT solution in PBS (5 mg/mL) and cells were incubated at least for 3 h, and formazan was dissolved in DMSO. The absorbance was measured at […] and 620 nm using Thermofischer Scientific Multiscan FC. The values for each point were calculated from 6 wells.

Data set [2] is described as follows: Water solubility (comparison in words). The data set is classed as physicochemical. Conditions: compared to AbiAc.
A short description of data set [3]: Acute toxicity in mice. The data set is classed as in vivo. The protocol:
White, outbred male mice (ICR) about 2 months old weighing 19–21 g were used. Conjugate PSMA-Abi (2000 mg/kg) was formulated with 1% starch gel solution. The mixture was administrated intragastrically in an amount not exceeding 0.5 mL, and in portions if necessary. The control group was administered 1% starch gel solution. Animals were kept under controlled environmental conditions: air temperature 20–26 °C and relative humidity 30–70%. Lighting in the rooms was artificial (a cycle of 12 h of light, 12 h of darkness). Before the start of the study, animals were divided into groups of 10 animals per group. The distribution was made such that the average masses of groups of animals of one species differed by no more than 10%. Before the experiment concerning the determination of acute toxicity, the animals were deprived of food and water (mice for 2 h) and then weighed. The duration of observation of laboratory animals was 14 days. During this period, visible signs of intoxication were evaluated. Dose selection was carried out based on 22Rv1 xenograft experiments with the maximum effective dose for mice of 500 mg/kg.

Data set [4] concerns the target T1, cytochrome P450 1A2 (Homo sapiens, UniProt P05177).
T1 construct: isoenzyme activity in human liver microsomes using conventional sample substrates and HPLC-MS/MS detection; from tissue; host or cells: human liver microsomes
T1 sequence (P05177 1-516): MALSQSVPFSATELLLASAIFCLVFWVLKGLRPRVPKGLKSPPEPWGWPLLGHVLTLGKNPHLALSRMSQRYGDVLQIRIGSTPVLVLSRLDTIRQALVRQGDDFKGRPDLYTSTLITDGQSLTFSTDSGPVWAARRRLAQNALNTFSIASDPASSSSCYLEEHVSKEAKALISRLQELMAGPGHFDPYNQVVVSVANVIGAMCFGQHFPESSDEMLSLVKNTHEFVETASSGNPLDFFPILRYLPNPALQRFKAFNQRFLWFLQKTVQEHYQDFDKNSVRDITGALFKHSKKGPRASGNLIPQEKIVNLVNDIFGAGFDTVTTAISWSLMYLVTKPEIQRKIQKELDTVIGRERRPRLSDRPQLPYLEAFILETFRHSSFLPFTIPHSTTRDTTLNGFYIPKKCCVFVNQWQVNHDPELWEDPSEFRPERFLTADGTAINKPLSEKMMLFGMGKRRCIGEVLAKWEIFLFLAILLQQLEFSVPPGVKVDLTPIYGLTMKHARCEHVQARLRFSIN
Briefly: Cytochrome inhibition in human liver microsomes, 1A2. The data set is classed as in vitro ADME. Conditions: substrate Phenacetin, read-out: IC50, 1A2 (PSMA-Abi). From the text:
(§1) To assess the effect of drugs on liver cytochrome activity in drug development, test systems with recombinant enzymes and fluorescent substrates as well as microsomes with metabolic substrates and HPLC-MS/MS analysis were used. The present study aimed to investigate the effect of targeted delivery drugs specific to malignant prostate cells on cytochrome P450 (CYP450) isoenzyme activity in human liver microsomes using conventional sample substrates and HPLC-MS/MS detection. Detailed methodological parameters are described in the Supplementary Material.

The target of data set [5] is T2, cytochrome P450 2C8 (Homo sapiens, UniProt P10632).
T2 construct: isoenzyme activity in human liver microsomes using conventional sample substrates and HPLC-MS/MS detection; from tissue; host or cells: human liver microsomes
T2 sequence (P10632 1-490): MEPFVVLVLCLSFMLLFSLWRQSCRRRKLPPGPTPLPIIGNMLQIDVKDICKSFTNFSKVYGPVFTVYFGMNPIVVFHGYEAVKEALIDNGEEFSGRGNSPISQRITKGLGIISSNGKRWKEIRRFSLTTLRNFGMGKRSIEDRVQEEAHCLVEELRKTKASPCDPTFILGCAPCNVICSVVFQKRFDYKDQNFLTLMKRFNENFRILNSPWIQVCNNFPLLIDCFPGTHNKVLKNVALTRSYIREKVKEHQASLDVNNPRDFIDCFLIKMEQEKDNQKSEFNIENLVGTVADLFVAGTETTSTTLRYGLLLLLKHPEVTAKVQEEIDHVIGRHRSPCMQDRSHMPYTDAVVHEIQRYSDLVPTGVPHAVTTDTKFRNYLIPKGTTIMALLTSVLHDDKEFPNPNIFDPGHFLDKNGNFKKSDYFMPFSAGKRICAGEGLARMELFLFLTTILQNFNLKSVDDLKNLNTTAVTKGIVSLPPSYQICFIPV
The data set can be described thus: Cytochrome inhibition in human liver microsomes, 2C8. The data set is classed as in vitro ADME. Conditions: substrate Paclitaxel, read-out: IC50, 2C8 (PSMA-Abi).
Description: as §1
On the technique in general: Microsomes from liver hold many membrane-bound enzymes, among them those of drug oxidation.

The target of data set [6] is T3, cytochrome P450 2C9 (Homo sapiens, UniProt P11712).
T3 construct: isoenzyme activity in human liver microsomes using conventional sample substrates and HPLC-MS/MS detection; from tissue; host or cells: human liver microsomes
T3 sequence (P11712 whole entry): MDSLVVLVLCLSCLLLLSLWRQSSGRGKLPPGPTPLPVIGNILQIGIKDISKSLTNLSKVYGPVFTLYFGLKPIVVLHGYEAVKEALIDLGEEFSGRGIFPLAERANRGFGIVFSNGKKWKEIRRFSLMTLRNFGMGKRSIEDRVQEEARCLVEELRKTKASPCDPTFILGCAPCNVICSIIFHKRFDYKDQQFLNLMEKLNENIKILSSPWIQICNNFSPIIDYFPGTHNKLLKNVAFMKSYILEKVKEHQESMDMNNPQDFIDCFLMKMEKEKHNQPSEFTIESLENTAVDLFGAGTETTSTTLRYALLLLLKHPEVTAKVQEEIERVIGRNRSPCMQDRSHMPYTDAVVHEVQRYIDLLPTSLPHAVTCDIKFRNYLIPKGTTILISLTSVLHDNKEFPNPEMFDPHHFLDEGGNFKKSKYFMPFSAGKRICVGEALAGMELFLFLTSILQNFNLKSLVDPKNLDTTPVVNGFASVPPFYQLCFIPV
Briefly: Cytochrome inhibition in human liver microsomes, 2C9. The data set is classed as in vitro ADME. As to conditions: substrate Tolbutamide, read-out: IC50, 2C9 (PSMA-Abi).
Description: as §1

For data set [7], the target named is T4, cytochrome P450 2C19 (Homo sapiens, UniProt P33261).
T4 construct: isoenzyme activity in human liver microsomes using conventional sample substrates and HPLC-MS/MS detection; from tissue; host or cells: human liver microsomes
T4 sequence (P33261 whole entry): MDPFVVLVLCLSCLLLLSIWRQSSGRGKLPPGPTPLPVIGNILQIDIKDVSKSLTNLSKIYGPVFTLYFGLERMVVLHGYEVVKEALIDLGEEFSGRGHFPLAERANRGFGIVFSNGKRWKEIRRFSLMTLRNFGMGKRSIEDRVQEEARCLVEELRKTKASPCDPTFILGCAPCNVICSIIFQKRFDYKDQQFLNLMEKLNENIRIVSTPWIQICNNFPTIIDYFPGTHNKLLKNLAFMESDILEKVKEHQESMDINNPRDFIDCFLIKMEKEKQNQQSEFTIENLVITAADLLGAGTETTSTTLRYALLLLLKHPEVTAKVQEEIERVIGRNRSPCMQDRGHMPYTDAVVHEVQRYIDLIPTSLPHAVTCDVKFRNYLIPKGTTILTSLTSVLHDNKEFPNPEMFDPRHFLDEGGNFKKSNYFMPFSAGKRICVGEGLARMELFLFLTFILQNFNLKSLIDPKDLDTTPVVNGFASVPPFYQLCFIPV
Briefly: Cytochrome inhibition in human liver microsomes, 2C19. The data set is classed as in vitro ADME. As to conditions: substrate Mephenytoin, read-out: IC50, 2C19 (PSMA-Abi).
Description: as §1

Data set [8] addresses T5, cytochrome P450 2D6 (Homo sapiens, UniProt P10635).
T5 construct: isoenzyme activity in human liver microsomes using conventional sample substrates and HPLC-MS/MS detection; from tissue; host or cells: human liver microsomes
The data set can be described thus: Cytochrome inhibition in human liver microsomes, 2D6. The data set is classed as in vitro ADME. As to conditions: substrate Dextromethorphan, read-out: IC50, 2D6 (PSMA-Abi).
Description: as §1

The mark [9] stands for this setting: mice males, 2000 mg/kg single, M±SD.

T5 sequence (P10635 whole entry): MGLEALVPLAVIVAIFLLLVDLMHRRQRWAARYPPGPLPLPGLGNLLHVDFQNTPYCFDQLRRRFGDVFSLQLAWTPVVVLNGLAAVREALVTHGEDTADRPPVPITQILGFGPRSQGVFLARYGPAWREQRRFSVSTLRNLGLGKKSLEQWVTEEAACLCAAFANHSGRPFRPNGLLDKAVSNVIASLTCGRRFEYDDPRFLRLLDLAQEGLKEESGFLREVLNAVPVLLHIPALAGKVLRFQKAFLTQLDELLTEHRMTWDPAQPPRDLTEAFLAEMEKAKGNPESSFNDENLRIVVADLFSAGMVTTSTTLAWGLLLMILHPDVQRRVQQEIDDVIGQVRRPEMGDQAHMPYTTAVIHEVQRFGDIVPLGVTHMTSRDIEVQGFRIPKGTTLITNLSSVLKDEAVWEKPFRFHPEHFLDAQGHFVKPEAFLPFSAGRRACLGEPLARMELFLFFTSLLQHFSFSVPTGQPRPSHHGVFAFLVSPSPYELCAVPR

What is called CC50 is the concentration that lowers cell viability or growth by half. Read a low CC50 as greater toxicity to the cells. In general, IC50 refers to the concentration at which inhibition is half-maximal. As to `C[C@]12CC[C@H](OC(=O)CCCc3cn(CCCNC(=O)[C@H](Cc4ccc(O)cc4)NC(=O)[C@H](Cc4ccccc4)NC(=O)CCC(=O)NCCCCCC(=O)N(CCCC[C@H](NC(=O)N[C@@H](CCC(=O)O)C(=O)O)C(=O)O)Cc4cccc(Cl)c4)nn3)CC1=CC[C@@H]1[C@@H]2CC[C@]2(C)C(c3cccnc3)=CC[C@@H]12` [PSMA-Abi], the CC50 in data set [1] (HDFa, 72 h, MTT) is greater than 100 µM. Further, the “toxicity for human fibroblasts” value in data set [1] (tested concentrations 0.4–100 µM) is “inactive”. In addition, the water solubility entry in data set [2] is recorded as “better water solubility compared to the AbiAc”. The “weight dynamic, % of starting weight, 5 days” value in data set [3] (setting [9]) is listed as 17.5±7.4%. Besides, in data set [3] (setting [9]), the “weight dynamic, % of starting weight, 10 days” value is reported as 30.9±11.5%. Besides, the “weight dynamic, % of starting weight, 14 days” value in data set [3] (setting [9]) amounted to 30.7±17.9%. In addition, in data set [3] (mice, 2000 mg/kg single dose, by the 14th day, control 50), the “growth rate (body weight), % of initial weight” value is 30%. The animal death entry in data set [3] (mice, 2000 mg/kg single dose, intragastric, 14 days observation, 2000 mg/kg) is reported as “No animal death was observed; also recorded: without animal death”. In data set [3] (mice, single dose), the tolerable dose was determined as 2000 mg/kg. Further, the IC50 in data set [4] was 4.5 ± 1.1 µM; in data set [5], 4.4 ± 1.1 µM; in data set [6], greater than 25 µM; in data set [7], greater than 25 µM; in data set [8] it was 17 ± 1 µM.
